Source: US20260363243A1 (priority 2022, published 2026)
Read-outs that look alike come from different tables or passages of the source.

Legend:
cucumber downy mildew [1] = settings: Table 3, data from Li, J. L. et al. 2020, cited from earlier work
cucumber downy mildew [2] = assay: Activity in vivo for inhibiting cucumber downy mildew (potting method, greenhouse); settings: re-screening, Table 2
From the text: The test and investigation method refers to a SOP-SC-1098 cucumber downy mildew potting method in the fungicide section of Standard operation Specification for testing biological Activity of pesticides written by Kang Zhuo and Gu Baogen.

Row | SMILES | Control effect (cucumber downy mildew [1]; 0.625 mg/L) | Control effect (cucumber downy mildew [1]; 2.5 mg/L) | Control effect (cucumber downy mildew [1]; 10 mg/L) | Control effect (cucumber downy mildew [2]; 0.02 mg/L) | Control effect (cucumber downy mildew [2]; 0.078 mg/L) | Control effect (cucumber downy mildew [2]; 0.312 mg/L) | Control effect (cucumber downy mildew [2]; 1.25 mg/L)
1 | CC/C=C/CC(=O)N1CCC(c2nc(C3=NOC(c4c(F)cccc4F)C3)cs2)CC1 (centres unmarked) [comparative 2] | D (45% ≤ D < 60%) | B (75% ≤ B < 90%) | A (90% ≤ A ≤ 100%) |  |  |  | 
2 | CC/C(C)=C/CC(=O)N1CCC(c2nc(C3=NOC(c4c(F)cccc4F)C3)cs2)CC1 (centres unmarked) [comparative 3] | E (0% ≤ E < 45%) | C (60% ≤ C < 75%) | A (90% ≤ A ≤ 100%) |  |  |  | 
3 | O=C(CCO)N1CCC(c2nc(C3=NOC(c4c(F)cccc4F)C3)cs2)CC1 (centres unmarked) [comparative 4] | E (0% ≤ E < 45%) | E (0% ≤ E < 45%) | D (45% ≤ D < 60%) |  |  |  | 
4 | O=C(CC1CCCCC1)N1CCC(c2nc(C3=NOC(c4c(F)cccc4F)C3)cs2)CC1 (centres unmarked) [comparative 5] | E (0% ≤ E < 45%) | D (45% ≤ D < 60%) | A (90% ≤ A ≤ 100%) |  |  |  | 
5 | O=C(CN1CCCCC1)N1CCC(c2nc(C3=NOC(c4c(F)cccc4F)C3)cs2)CC1 (centres unmarked) [comparative 6] | E (0% ≤ E < 45%) | E (0% ≤ E < 45%) | E (0% ≤ E < 45%) |  |  |  | 
6 | O=C(CN1CCCC(O)C1)N1CCC(c2nc(C3=NOC(c4c(F)cccc4F)C3)cs2)CC1 (centres unmarked) [comparative 7] | E (0% ≤ E < 45%) | E (0% ≤ E < 45%) | E (0% ≤ E < 45%) |  |  |  | 
7 | Cc1ccc(-c2c(Cl)nc(C#N)n2S(=O)(=O)N(C)C)cc1 [cyazofamid, reference compound] |  |  |  | E (0%≤E<45%) | B (75%≤B<90%) | A (90%≤A≤100%) | A (90%≤A≤100%)
8 | COc1ccc(C(=CC(=O)N2CCOCC2)c2ccc(Cl)cc2)cc1OC [dimethomorph, reference compound] |  |  |  | C (60%≤C<75%) | B (75%≤B<90%) | A (90%≤A≤100%) | A (90%≤A≤100%)
